In patent publication US8808742B2, “Compositions and methods for preparing and using same” (Ardea Biosciences, Inc., priority 2008, dated 2014):
Read-outs that look alike come from different tables or passages of the source. Each block holds one compound with its values, some of them ahead of it.

Columns and labels:
[1] = system: phosphorylated ERK in MDA-MB-231 breast cancer cells; assay: Western blotting for phosphorylated ERK in MDA-MB-231 cells (EC50 data); type: cell-based; details: Homo sapiens, 0.5 h, 30 min compound, EGF stimulation, read-out: MDA pERK ELISA EC50
Experimental: Effects of compounds in the cell were determined by Western blotting for phosphorylated ERK. MDA-MB-231 breast cancer cells were plated in a 48 well plate at 20,000 cells per well and grown in a 37° humidified CO2 incubator. The following day, the growth media (DMEM+10% fetal bovine serum) was removed and replaced with starve media (DMEM+0.1% fetal bovine serum). Cells were incubated in the starve media for sixteen hours and then treated with a range of compound concentrations for thirty minutes. After incubation with compound, cells were stimulated with 100 ng/mlEGF for five minutes. The cells were then lysed and analyzed by Western blot using a monoclonal antibody raised to phosphorylated ERK. The signal was amplified using a secondary antibody conjugated to a near-IR dye and detected on a Licor Odyssey scanner.

[2] = Single-dose capsule administration in human cancer patients, concentration-time profiles; details: in vivo, oral, capsules of example 95A
Experimental: Administration of the capsules described in example 95A in Human Cancer Patients.Human cancer patients were administered a single dose of the 1 mg or 10 mg capsule composition described above in example 95A. For a 2 mg dose, patients were given 2×1 mg capsules; for a 4 mg dose, patients were given 4×1 mg capsules; for a 6 mg dose, patients were given 6×1 mg capsules; for a 10 mg dose, patients were given 1×10 mg capsule; for a 20 mg dose, patients were given 2×10 mg capsules.
The concentration-time profiles were monitored and are shown in FIG. 4 and in the table below: […]

A375 melanoma tumors = assay: A375 melanoma xenograft, tumor growth inhibition / delay; type: in vivo, nu/nu mice
Experimental: (§1) Human tumors were implanted in nu/nu mice. Compound no. 1021 was administered orally for 14 days once tumors were approximately 100 mm^3 in size. Tumor growth inhibition (TGI) was determined after 14 days of treatment as the reduction in the size of tumors in treated groups versus vehicle controls. The time to endpoint (TTE) was calculated as the time for the tumor to reach the specified endpoint volume or the last day of the study, whichever came first. Treatment outcome was determined from percent tumor growth delay (% TGD), defined as the percent increase in median TTE of treated versus vehicle-treated control mice. Animals were also monitored for regression responses. Levels of pERK in tumors and brain were determined by Western blots and correlated with plasma levels of Compound no. […] A number of tumor models were evaluated with different doses and dosing regimens. […] The effect of different dosing regimens was evaluated in A375 xenografts. […]
(§2) Tumor Growth Inhibition for the groups treated with 25 mg/kg Compound no. 1021 were calculated for the indicated tumor xenografts. Tumor Growth Inhibition was measured at the end of once daily dosing for 14 days and calculated according to: […]
Female nu/nu mice were implanted with A375 tumor cells, which were allowed to grow to 100-200 mm^3. […] Tumor Growth Inhibition was measured at the end of once daily dosing for 14 days and calculated according to: […]

[3] = system: Colo205 colon cancer tumors; assay: Colo205 colon tumor xenograft, tumor growth inhibition / delay; type: in vivo, nu/nu mice
Experimental: (§3) Human tumors were implanted in nu/nu mice. Compound no. 1021 was administered orally for 14 days once tumors were approximately 100 mm^3 in size. Tumor growth inhibition (TGI) was determined after 14 days of treatment as the reduction in the size of tumors in treated groups versus vehicle controls. The time to endpoint (TTE) was calculated as the time for the tumor to reach the specified endpoint volume or the last day of the study, whichever came first. Treatment outcome was determined from percent tumor growth delay (% TGD), defined as the percent increase in median TTE of treated versus vehicle-treated control mice. Animals were also monitored for regression responses. Levels of pERK in tumors and brain were determined by Western blots and correlated with plasma levels of Compound no. 1021 for the pharmacodynamic/pharmacokinetic study. A number of tumor models were evaluated with different doses and dosing regimens. […] The effect of different dosing regimens was evaluated in A375 xenografts. Although 100 mg/kg Compound no. […] 1021. […]
as §2

A431 epidermoid tumors = assay: A431 epidermoid tumor xenograft, tumor growth inhibition / delay; type: in vivo, nu/nu mice
Experimental: as §3, §2

[4] = system: MEK (pERK levels) in Colo205 tumors; assay: MEK inhibition (pERK Western blot) in Colo205 xenograft tumors vs plasma concentration; type: in vivo, Female nu/nu mice; details: Colo205 xenografts, pharmacodynamic/pharmacokinetic study
Experimental: as §1
(§4) Female nu/nu mice implanted with Colo205 tumor cells were given a single dose of vehicle or Compound no. […] Compound levels were determined in plasma samples and pERK levels were determined in tumor and brain samples collected at 2, 6, 12, and 24 hr post-dose. The pERK levels from Western blots were quantified using the LI-COR Odyssey, normalized to total ERK levels and compared to vehicle-treated levels to determine % MEK inhibition. […]

[5] = system: brain MEK activity (pERK levels); assay: Inhibition of brain MEK activity (pERK Western blot) vs plasma concentration; type: in vivo, Female nu/nu mice; details: Colo205 xenograft mice, pharmacodynamic/pharmacokinetic study
Experimental: as §1, §4

[6] = Plasma concentrations in A375 xenograft mice, QD vs BID; type: in vivo, Female nu/nu mice; details: oral
HT29 colon cancer tumors = assay: HT29 colon tumor xenograft, tumor growth inhibition; type: in vivo, nu/nu mice; details: oral 25 mg/kg QD
Experimental: as §3, §2

[7] = column 2, no head, 2nd regimen of b975: 25 mg/kg BID

- EC50 [1]: > 0.2 µM
SMILES: O=S(=O)(Nc1ccc(F)c(F)c1Nc1ccc(-c2ccccc2)cc1F)C1CC1 [compound 0497692]

- EC50 [1]: > 0.2 µM
SMILES: CC(=O)c1cccc(-c2ccc(Nc3c(NS(=O)(=O)C4CC4)ccc(F)c3F)c(F)c2)c1 [compound 0499266]

- concentration at 12 h ([2]; 2 mg, Dose 2 mg, Day 1, read-out: C12 hr): 0.0378 ng/mL
- concentration at 12 h ([2]; 2 mg, Dose 2 mg, Day 35, read-out: C12 hr): 0.0756 ng/mL
- concentration at 12 h ([2]; 4 mg, Dose 4 mg, Day 1, read-out: C12 hr): 0.134 ng/mL
- concentration at 12 h ([2]; 4 mg, Dose 4 mg, Day 35, read-out: C12 hr): 0.31 ng/mL
- concentration at 12 h ([2]; 10 mg, Dose 10 mg, Day 35, read-out: C12 hr): 1.01 ng/mL
- concentration at 12 h ([2]; 20 mg, Dose 20 mg, Day 35, read-out: C12 hr): 2.19 ng/mL
- Cmin Free Fraction ([6]; column 1, no head, 1st regimen of b975: 50 mg/kg QD): 0.117 ng/mL
- Cmax [6, 7]: 10200 ng/mL
- Cmin Free Fraction [6, 7]: 2.48 ng/mL
- Cmin Free Fraction ([6]; column 3, no head, 3rd regimen of b975: printed 50 mg/kg QD): 0.059 ng/mL
- Cmin Free Fraction ([6]; column 4, no head, 4th regimen of b975: 12.5 mg/kg BID): 0.986 ng/mL
SMILES: COc1cc(F)c(F)c(Nc2ccc(I)cc2F)c1NS(=O)(=O)C1(C[C@H](O)CO)CC1 [Compound no. 1021]
- % TGD, significance (A375 melanoma tumors; 25 or 50 mg/kg QD): statistically significant
- TGI, significance (A375 melanoma tumors; oral 25 mg/kg QD): Statistically significant
- % TGD, significance ([3]; 25 or 50 mg/kg QD): statistically significant
- TGI, significance ([3]; oral 25 mg/kg QD): Statistically significant
- % TGD, significance (A431 epidermoid tumors; 25 or 50 mg/kg QD): statistically significant
- TGI, significance (A431 epidermoid tumors; oral 25 mg/kg QD): Statistically significant
- pERK formation in tumors [4]: inhibition of pERK formation
- pERK inhibition in brain [5]: minimal inhibition
- TGI, significance (HT29 colon cancer tumors): Statistically significant

- EC50 [1]: > 0.2 µM
SMILES: O=S(=O)(Nc1ccc(F)c(F)c1Nc1ccc(-c2cn[nH]c2)cc1F)C1CC1 [compound 0497618]

- EC50 [1]: > 0.2 µM
SMILES: CS(=O)(=O)Nc1ccc(-c2ccc(Nc3c(NS(=O)(=O)C4CC4)ccc(F)c3F)c(F)c2)cc1 [compound 0499271]

- EC50 [1]: 0.1 to 0.2 µM
SMILES: O=S(=O)(Nc1ccc(F)c(F)c1Nc1ccc(-c2cc[nH]n2)cc1F)C1CC1 [compound 0497654]

- EC50 [1]: 0.015 to 0.1 µM
SMILES: O=S(=O)(Nc1ccc(F)c(F)c1Nc1ccc(I)cc1F)C1CCNCC1 [compound 0561599]

- EC50 [1]: 0.1 to 0.2 µM
SMILES: Cn1cc(S(=O)(=O)Nc2ccc(F)c(F)c2Nc2ccc(I)cc2F)c(C(F)(F)F)n1 [compound 0621026]

- EC50 [1]: > 0.2 µM
SMILES: COC(=O)c1sccc1S(=O)(=O)Nc1ccc(F)c(F)c1Nc1ccc(I)cc1F [compound 0620926]

- EC50 [1]: 0.015 to 0.1 µM
SMILES: COC(=O)c1ccc(S(=O)(=O)Nc2ccc(F)c(F)c2Nc2ccc(I)cc2F)n1C [compound 0561608]

- EC50 [1]: 0.015 to 0.1 µM
SMILES: CN(C)CCNCCS(=O)(=O)Nc1ccc(F)c(F)c1Nc1ccc(I)cc1F [compound 0621016]

- EC50 [1]: > 0.2 µM
SMILES: O=S(=O)(Nc1ccc(F)c(F)c1Nc1ccc(-c2ccncc2)cc1F)C1CC1 [compound 0497688]

- EC50 [1]: 0.015 to 0.1 µM
SMILES: CNCCS(=O)(=O)Nc1ccc(F)c(F)c1Nc1ccc(I)cc1F [compound 0621002]

- EC50 [1]: 0.1 to 0.2 µM
SMILES: O=S(=O)(Nc1ccc(F)c(F)c1Nc1ccc(I)cc1F)c1ccc(-c2nsc(Cl)n2)s1 [compound 0530701]

- EC50 [1]: > 0.2 µM
SMILES: Cn1cc(-c2ccc(Nc3c(NS(=O)(=O)C4CC4)ccc(F)c3F)c(F)c2)cn1 [compound 0497620]

- EC50 [1]: 0.1 to 0.2 µM
SMILES: CCN(C)CCS(=O)(=O)Nc1ccc(F)c(F)c1Nc1ccc(I)cc1F [compound 0621029]

- EC50 [1]: > 0.2 µM
SMILES: O=S(=O)(Nc1ccc(F)c(F)c1Nc1ccc(-c2cccnc2)cc1F)C1CC1 [compound 0497689]
